Measurements published in publication PMC6268379, “Antifungal Activity of Homoaconitate and Homoisocitrate Analogs” (Molecules, 2012).
Converted amounts (≈) assume the structure as drawn. Like-named read-outs stand apart in the source and are kept apart here.

What was measured:
[1] = system: Candida glabrata DSM 11226; test: Antifungal in vitro activity, microplate serial dilution (modified CLSI M27-A3); format: cell-based; conditions: Nakaseomyces glabratus
[2] = system: Candida albicans ATCC 10231; test: as above; format: cell-based
[3] = system: Saccharomyces cerevisiae ATCC 9763; test: as above; format: cell-based
[4] = system: Candida lusitaniae DSM 70102; test: as above; format: cell-based; conditions: Clavispora lusitaniae
[5] = system: Candida tropicalis KKP 334; test: as above; format: cell-based
Candida krusei DSM 6128 = test: as above; format: cell-based; conditions: Pichia kudriavzevii
six yeast strains = test: In vitro antifungal activity against six yeast strains; format: cell-based; conditions: for MIC values, range over susceptible yeast strains: range stated in text over the tested yeast strains; for antifungal activity: salts, six yeast strains, stated in words
[6] = biological target: recombinant homoisocitrate dehydrogenase (HIcDH) (Candida albicans, UniProt Q5A9D9); test: Homoisocitrate dehydrogenase activity, NADH absorption at 340 nm; format: biochemical; conditions: for effect on enzyme activity (homoisocitrate dehydrogenase): ester derivatives, concentrations up to 10 mM; for IC50: recombinant C. albicans His-tagged HIcDH, inhibitor 0–10 mM, mean of three determinations ± SD
recombinant homoisocitrate dehydrogenase (HIcDH), sequence (Q5A9D9 entry or part of it): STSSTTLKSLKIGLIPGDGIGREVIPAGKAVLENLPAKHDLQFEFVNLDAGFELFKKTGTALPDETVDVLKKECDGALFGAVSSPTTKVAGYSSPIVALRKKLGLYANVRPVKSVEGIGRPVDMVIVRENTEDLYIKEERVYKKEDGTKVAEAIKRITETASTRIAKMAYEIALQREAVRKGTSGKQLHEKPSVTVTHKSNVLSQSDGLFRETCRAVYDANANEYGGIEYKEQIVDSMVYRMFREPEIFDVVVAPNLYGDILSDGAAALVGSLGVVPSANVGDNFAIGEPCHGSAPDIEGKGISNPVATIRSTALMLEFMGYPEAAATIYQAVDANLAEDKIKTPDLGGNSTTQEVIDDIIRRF
Protocol: (§1) Recombinant C. albicans homoaconitase (HA) and homoisocitrate dehydrogenase (HIcDH) containing oligoHis N-terminal tags were constructed and purified to near homogeneity as described earlier.
Reaction catalyzed by homoisocitrate dehydrogenase (HIcDH) was monitored by measuring the NADH absorption at 340 nm. The standard assay mixture contained 10 mM KCl, 5.0 mM MgCl2, 5 mM NAD^+ and 0.1 mM (2R,3S)-homoisocitrate in 50 mM Hepes-NaOH (pH 7.8) buffer. The reaction mixture with all required components except for the enzyme was preincubated for 3 min and the reaction was started by an addition of the recombinant His6-HIcDH (50 μg). The formation of NADH was measured for 30 s at 20 °C to determine initial reaction velocity. The initial rates were determined using a linear portion of the reaction progress curve.
(§2) The effects of novel compounds on the HA and HIcDH activity was determined by measuring the enzyme activity in standard assay mixtures containing various concentration of an inhibitor (0–10 mM). Inhibitory potential was expressed as IC50 values, i.e., concentrations causing 50% inhibition of enzyme activity in relation to control. All determinations were performed in triplicate.

[7] = biological target: T1, recombinant homoaconitase (HA) (Candida albicans, UniProt Q5A644); test: Homoaconitase activity, coupled reaction with HIcDH, NADH at 340 nm; format: biochemical; conditions: for effect on enzyme activity (homoaconitase): ester derivatives, concentrations up to 10 mM
T1 construct: made in house
T1 sequence (Q5A644 1-684): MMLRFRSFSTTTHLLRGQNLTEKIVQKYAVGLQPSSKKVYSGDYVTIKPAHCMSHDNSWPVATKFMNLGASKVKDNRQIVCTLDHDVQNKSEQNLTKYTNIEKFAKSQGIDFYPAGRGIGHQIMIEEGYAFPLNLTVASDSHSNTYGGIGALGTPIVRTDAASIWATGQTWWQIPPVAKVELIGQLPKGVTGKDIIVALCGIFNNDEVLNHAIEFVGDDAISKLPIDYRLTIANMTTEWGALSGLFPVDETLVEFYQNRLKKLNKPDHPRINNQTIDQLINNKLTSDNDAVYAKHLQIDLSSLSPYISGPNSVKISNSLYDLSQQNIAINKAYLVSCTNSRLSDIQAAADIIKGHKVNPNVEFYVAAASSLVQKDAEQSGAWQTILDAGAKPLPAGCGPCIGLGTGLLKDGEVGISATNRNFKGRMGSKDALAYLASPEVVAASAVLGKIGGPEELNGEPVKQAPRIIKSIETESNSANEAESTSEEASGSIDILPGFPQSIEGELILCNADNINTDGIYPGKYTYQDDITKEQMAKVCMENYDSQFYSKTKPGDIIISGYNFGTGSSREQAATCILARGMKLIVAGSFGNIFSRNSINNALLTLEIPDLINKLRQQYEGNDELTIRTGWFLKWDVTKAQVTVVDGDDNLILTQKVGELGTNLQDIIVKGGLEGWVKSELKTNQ
Protocol: as §1
Activity of homoaconitase (HA) was measured by a coupled reaction with HIcDH by monitoring the reduction of NAD^+ to NADH at 340 nm. Reaction mixtures containing 50 mM Tris-HCl (pH 8.5), 50 mM KCl, 5 mM MgCl2, 20 mM dithiothreitol, 1 mM NAD^+ and 30 μg/mL of His6-HIcDH in a total volume of 0.9 mL were degassed under argon for 10 min, after which 0.05 mL of His6-HAC solution was added to a final concentration of 10 μg/mL. The reaction was initiated with addition of 0.05 mL of 50 mM (R)-homocitrate. The formation of NADH was measured for 30 s at 20 °C to determine initial reaction velocity. The initial rates were determined using a linear portion of the reaction progress curve.
as §2

[8] = DSM11226, RPMI-1640 pH 7.0, 24 h at 37 °C, at least 80% decrease in turbidity, read-out: MIC C. glabrata
[9] = ATCC10231, RPMI-1640 pH 7.0, 24 h at 37 °C, at least 80% decrease in turbidity, read-out: MIC C. albicans
[10] = ATCC9763, RPMI-1640 pH 7.0, 24 h at 37 °C, at least 80% decrease in turbidity, read-out: MIC S. cerevisiae
[11] = DSM70102, RPMI-1640 pH 7.0, 24 h at 37 °C, at least 80% decrease in turbidity, read-out: MIC C. lusitaniae
[12] = KKP334, RPMI-1640 pH 7.0, 24 h at 37 °C, at least 80% decrease in turbidity, read-out: MIC C. tropicalis
[13] = DSM6128, RPMI-1640 pH 7.0, 24 h at 37 °C, at least 80% decrease in turbidity, read-out: MIC C. krusei
[14] = DSM11226, 24 h, pH 7, read-out: MIC C. glabrata
[15] = ATCC10231, 24 h, pH 7, read-out: MIC C. albicans
[16] = ATCC9763, 24 h, pH 7, read-out: MIC S. cerevisiae
[17] = DSM70102, 24 h, pH 7, read-out: MIC C. lusitaniae
[18] = KKP334, 24 h, pH 7, read-out: MIC C. tropicalis
[19] = DSM6128, 24 h, pH 7, read-out: MIC C. krusei

OC(Cn1cncn1)(Cn1cncn1)c1ccc(F)cc1F [Flu, Fluconazole, reference compound]
MIC [1, 8]: 8 µg/mL (≈ 26.1 µM)
MIC [2, 9]: 4 µg/mL (≈ 13.1 µM)
MIC [3, 10]: 4 µg/mL (≈ 13.1 µM)
MIC [4, 11]: 4 µg/mL (≈ 13.1 µM)
MIC [5, 12]: 2 µg/mL (≈ 6.53 µM)
MIC (Candida krusei DSM 6128; [13]): 8 µg/mL (≈ 26.1 µM)

COC(=O)/C=C(\CCC(=O)OC)C(=O)OC [Compound 1a, trimethyl (1E)-but-1-ene-1,2,4-tricarboxylate]
MIC values, range over susceptible yeast strains (six yeast strains): 16 to 32 µg/mL
MIC [1, 8]: 16 µg/mL (≈ 69.5 µM)
MIC [2, 9]: 16 µg/mL (≈ 69.5 µM)
MIC [3, 10]: 32 µg/mL (≈ 139 µM)
MIC [4, 11]: 16 µg/mL (≈ 69.5 µM)
effect on enzyme activity (homoisocitrate dehydrogenase) [6]: none
effect on enzyme activity (homoaconitase) [7]: none
MIC [5, 12]: 32 µg/mL (≈ 139 µM)
MIC (Candida krusei DSM 6128; [13]): 32 µg/mL (≈ 139 µM)

C=CC[C@@H](C(=O)OC)[C@@H](F)C(=O)OC [Compound 6c, Dimethyl (2R,3S)-2-fluoro-3-allylsuccinate]
MIC [1, 8]: 256 µg/mL (≈ 1250 µM)
MIC [2, 9]: 256 µg/mL (≈ 1250 µM)
MIC [3, 10]: > 512 µg/mL
MIC [4, 11]: > 512 µg/mL
MIC [5, 12]: 256 µg/mL (≈ 1250 µM)
MIC (Candida krusei DSM 6128; [13]): 512 µg/mL (≈ 2510 µM)

O=C(O)CCC1(C(=O)O)OC1C(=O)O (stereo not drawn) [Compound 4, Tripotassium (1E)1,2-epoxy-butane-1,2,4-tricarboxylate]
antifungal activity (six yeast strains): None
MIC [1, 8]: > 512 µg/mL
MIC [2, 9]: > 512 µg/mL
MIC [3, 10]: > 512 µg/mL
MIC [4, 11]: > 512 µg/mL
IC50 [6]: > 10 mM
IC50 [7]: 5.76 ± 0.34 mM
MIC [5, 12]: > 512 µg/mL
MIC (Candida krusei DSM 6128; [13]): > 512 µg/mL

O=C([O-])/C=C(\CCC(=O)[O-])C(=O)[O-].[K+].[K+].[K+] [Compound 2, tripotassium (1E)-but-1-ene-1,2,4-tricarboxylate]
antifungal activity (six yeast strains): None
MIC [1, 14]: > 512 µg/mL
MIC [2, 15]: > 512 µg/mL
MIC [3, 16]: > 512 µg/mL
MIC [4, 17]: > 512 µg/mL
IC50 [6]: > 10 mM
IC50 [7]: 1.58 ± 0.11 mM
MIC [5, 18]: > 512 µg/mL
MIC (Candida krusei DSM 6128; [19]): > 512 µg/mL

CCC[C@@H](C(=O)OC)[C@@H](F)C(=O)OC [Compound 6a, Dimethyl (2R,3S)-2-fluoro-3-propylsuccinate]
MIC [1, 8]: > 512 µg/mL
MIC [2, 9]: > 512 µg/mL
MIC [3, 10]: > 512 µg/mL
MIC [4, 11]: 512 µg/mL (≈ 2480 µM)
MIC [5, 12]: > 512 µg/mL
MIC (Candida krusei DSM 6128; [13]): > 512 µg/mL

CCC[C@@H](C(=O)OC)[C@H](O)C(=O)OC [Compound 5a, Dimethyl (2S,3R)-2-hydroxy-3-propylsuccinate]
MIC [1, 8]: > 512 µg/mL
MIC [2, 9]: > 512 µg/mL
MIC [3, 10]: > 512 µg/mL
MIC [4, 11]: > 512 µg/mL
MIC [5, 12]: > 512 µg/mL
MIC (Candida krusei DSM 6128; [13]): > 512 µg/mL

O=C([O-])CC[C@@H](C(=O)[O-])[C@@H](F)C(=O)[O-].[K+].[K+].[K+] [Compound 10, tripotassium (1R,2S)-1-fluorobutane-1,2,4-tricarboxylate]
antifungal activity (six yeast strains): None
MIC [1, 14]: > 512 µg/mL
MIC [2, 15]: > 512 µg/mL
MIC [3, 16]: > 512 µg/mL
MIC [4, 17]: > 512 µg/mL
IC50 [6]: 3.22 ± 0.55 mM
IC50 [7]: > 10 mM
MIC [5, 18]: > 512 µg/mL
MIC (Candida krusei DSM 6128; [19]): > 512 µg/mL

COC(=O)CC[C@@H](C(=O)OC)[C@@H](F)C(=O)OC [Compound 9, trimethyl (1R,2S)-1-fluorobutane-1,2,4-tricarboxylate]
MIC [1, 8]: 256 µg/mL (≈ 1020 µM)
MIC [2, 9]: 128 µg/mL (≈ 512 µM)
MIC [3, 10]: > 512 µg/mL
MIC [4, 11]: > 512 µg/mL
effect on enzyme activity (homoisocitrate dehydrogenase) [6]: none
effect on enzyme activity (homoaconitase) [7]: none
MIC [5, 12]: 64 µg/mL (≈ 256 µM)
MIC (Candida krusei DSM 6128; [13]): 256 µg/mL (≈ 1020 µM)

CCCC[C@@H](C(=O)OC)[C@@H](F)C(=O)OC [Compound 6b, Dimethyl (2R,3S)-2-fluoro-3-butylsuccinate]
MIC [1, 8]: 512 µg/mL (≈ 2320 µM)
MIC [2, 9]: 256 µg/mL (≈ 1160 µM)
MIC [3, 10]: > 512 µg/mL
MIC [4, 11]: 128 µg/mL (≈ 581 µM)
MIC [5, 12]: 128 µg/mL (≈ 581 µM)
MIC (Candida krusei DSM 6128; [13]): > 512 µg/mL

NC(=O)c1ccc[n+]([C@@H]2O[C@H](COP(=O)([O-])OP(=O)(O)OC[C@H]3O[C@@H](n4cnc5c(N)ncnc54)[C@H](O)[C@@H]3O)[C@@H](O)[C@H]2O)c1 [NAD^+, reference compound]
Km ([6]; recombinant C. albicans HIcDH, read-out: KM of recombinant HIcDH for cofactor): 1100 µM

CCCC[C@@H](C(=O)OC)[C@H](O)C(=O)OC [Compound 5b, Dimethyl (2S,3R)-2-hydroxy-3-butylsuccinate]
MIC [1, 8]: > 512 µg/mL
MIC [2, 9]: > 512 µg/mL
MIC [3, 10]: > 512 µg/mL
MIC [4, 11]: > 512 µg/mL
MIC [5, 12]: > 512 µg/mL
MIC (Candida krusei DSM 6128; [13]): > 512 µg/mL

C=CC[C@@H](C(=O)[O-])[C@@H](F)C(=O)[O-].[K+].[K+] [Compound 7c, Dipotassium (2R,3S)-2-fluoro-3-allylsuccinate]
antifungal activity (six yeast strains): None
MIC [1, 14]: > 512 µg/mL
MIC [2, 15]: > 512 µg/mL
MIC [3, 16]: > 512 µg/mL
MIC [4, 17]: 512 µg/mL
IC50 [6]: 6.78 ± 0.56 mM
IC50 [7]: > 10 mM
MIC [5, 18]: > 512 µg/mL
MIC (Candida krusei DSM 6128; [19]): > 512 µg/mL

COC(=O)CCC1(C(=O)OC)OC1C(=O)OC (stereo not drawn) [Compound 3, Trimethyl (1E)1,2-epoxy-butane-1,2,4-tricarboxylate]
MIC values, range over susceptible yeast strains (six yeast strains): 128 to 512 µg/mL
MIC [1, 8]: 128 µg/mL (≈ 520 µM)
MIC [2, 9]: 256 µg/mL (≈ 1040 µM)
MIC [3, 10]: > 512 µg/mL
MIC [4, 11]: 512 µg/mL (≈ 2080 µM)
effect on enzyme activity (homoisocitrate dehydrogenase) [6]: none
effect on enzyme activity (homoaconitase) [7]: none
MIC [5, 12]: 128 µg/mL (≈ 520 µM)
MIC (Candida krusei DSM 6128; [13]): > 512 µg/mL

C=CC[C@@H](C(=O)OC)[C@H](O)C(=O)OC [Compound 5c, Dimethyl (2S,3R)-2-hydroxy-3-allylsuccinate]
MIC [1, 8]: > 512 µg/mL
MIC [2, 9]: > 512 µg/mL
MIC [3, 10]: > 512 µg/mL
MIC [4, 11]: > 512 µg/mL
MIC [5, 12]: > 512 µg/mL
MIC (Candida krusei DSM 6128; [13]): > 512 µg/mL
